Experimental data reported in patent US20260250290A1 (BRISTOL-MYERS SQUIBB COMPANY, priority 2023, published 2026).
Values joined by “and” are separate entries in the source; they are usually repeats but may differ in a detail not shown here. Identical values can stand only once.

Biological target: T1, full length SGK1 (Homo sapiens, UniProt O00141)
T1 construct: 125 μM full length SGK1 (Life Technologies Part #PR7358A); purchased Life Technologies PR7358A
T1 sequence (O00141 1-431): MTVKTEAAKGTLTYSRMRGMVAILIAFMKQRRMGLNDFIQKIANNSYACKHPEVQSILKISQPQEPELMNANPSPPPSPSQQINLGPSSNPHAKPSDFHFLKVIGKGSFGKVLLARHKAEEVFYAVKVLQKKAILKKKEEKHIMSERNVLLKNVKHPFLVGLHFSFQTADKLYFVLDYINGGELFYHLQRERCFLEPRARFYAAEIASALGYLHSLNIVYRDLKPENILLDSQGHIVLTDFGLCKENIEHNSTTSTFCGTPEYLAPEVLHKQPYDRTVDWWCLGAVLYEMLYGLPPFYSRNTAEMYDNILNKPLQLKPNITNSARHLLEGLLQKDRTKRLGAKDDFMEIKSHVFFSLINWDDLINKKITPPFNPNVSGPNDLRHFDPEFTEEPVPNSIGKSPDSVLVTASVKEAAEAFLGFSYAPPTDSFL
Assay: SGK1 inhibition Assay A (Caliper LabChip electrophoretic separation of fluorescent peptide substrate and phosphorylated product)
Assay type: biochemical
Details: Assay A; 20 μM ATP, 40 min incubation; read-out: SGK1 IC50

Row | Structure (SMILES) | IC50
1 | COC(=O)N1CC=C(c2cc(N3CCC[C@@H](NC(=O)c4ccc(C(F)F)s4)C3)c3c(N)ncnn23)C1 [Example 480, Methyl (R)-3-(4-amino-5-(3-(5-(difluoromethyl)thiophene-2-carboxamido)piperidin-1-yl)pyrrolo[2,1-f][1,2,4]triazin-7-yl)-2,5-dihydro-1H-pyrrole-1-carboxylate] | 3 nM
2 | Cc1cc(-c2cc(N3CCC[C@@H](NC(=O)c4sc(Cl)cc4OCCN(C)C)C3)c3c(N)ncnn23)cc(C(F)F)n1 [Example 277, (R)-N-(1-(4-amino-7-(2-(difluoromethyl)-6-methylpyridin-4-yl)pyrrolo[2,1-f][1,2,4]triazin-5-yl)piperidin-3-yl)-5-chloro-3-(2-(dimethylamino)ethoxy) thiophene-2-carboxamide] | 10 nM
3 | Cc1ccc(C(=O)N[C@@H]2CCCN(c3c(C#N)c(-c4ccc(S(C)(=O)=O)cc4)n4ncnc(N)c34)C2)s1 [Example 197, N-[(3R)-1-[4-amino-6-cyano-7-(4-methanesulfonylphenyl)pyrrolo[2,1-f][1,2,4]triazin-5-yl]piperidin-3-yl]-5-methylthiophene-2-carboxamide] | 30 nM
4 | CS(=O)(=O)c1ccc(-c2cc(N3CCC[C@@H](NC(=O)c4cccc(F)c4)C3)c3c(N)ncnn23)cc1 [Example 53, (R)-N-(1-(4-amino-7-(4-(methylsulfonyl)phenyl)pyrrolo[2,1-f][1,2,4]triazin-5-yl)piperidin-3-yl)-3-fluorobenzamide] | 15 nM
5 | CC(=O)N1CC=C(c2cc(N3CCC[C@@H](NC(=O)c4cc5cc(F)ccc5[nH]4)C3)c3c(N)ncnn23)C1 [Example 517, (R)-N-(1-(7-(1-acetyl-2,5-dihydro-1H-pyrrol-3-yl)-4-aminopyrrolo[2,1-f][1,2,4]triazin-5-yl)piperidin-3-yl)-5-fluoro-1H-indole-2-carboxamide] | 28 nM

Other lines, results leading:

Row | IC50 | Structure (SMILES)
6 | 188 nM | COC(=O)N1CC=C(c2cc(N3CCC[C@@H](NC(=O)c4cc5ccc(C(F)(F)F)cc5[nH]4)C3)c3c(N)ncnn23)C1 [Example 500, methyl (R)-3-(4-amino-5-(3-(6-(trifluoromethyl)-1H-indole-2-carboxamido)piperidin-1-yl)pyrrolo[2,1-f][1,2,4]triazin-7-yl)-2,5-dihydro-1H-pyrrole-1-carboxylate]
7 | 292 nM | CC(=O)N1CC=C(c2cc(N3CCC[C@@H](NC(=O)c4cc(-c5cncnc5)n[nH]4)C3)c3c(N)ncnn23)C1 [Example 501, (R)-N-(1-(7-(1-acetyl-2,5-dihydro-1H-pyrrol-3-yl)-4-aminopyrrolo[2,1-f][1,2,4]triazin-5-yl)piperidin-3-yl)-3-(pyrimidin-5-yl)-1H-pyrazole-5-carboxamide]
8 | 112 nM | CS(=O)(=O)c1ccc(-c2cc(N3CCC[C@@H](NC(=O)c4ccncn4)C3)c3c(N)ncnn23)cc1 [Example 31, (R)-N-(1-(4-amino-7-(4-(methylsulfonyl)phenyl)pyrrolo[2,1-f][1,2,4]triazin-5-yl)piperidin-3-yl)pyrimidine-4-carboxamide]
9 | 87 nM | CC(=O)N1CC=C(c2cc(N3CCC[C@@H](NC(=O)c4cccc(C#N)c4)C3)c3c(N)ncnn23)C1 [Example 495, (R)-N-(1-(7-(1-acetyl-2,5-dihydro-1H-pyrrol-3-yl)-4-aminopyrrolo[2,1-f][1,2,4]triazin-5-yl)piperidin-3-yl)-3-cyanobenzamide]
10 | 16 nM and 26 nM | CN(C)CCOc1cc(Cl)sc1C(=O)N[C@@H]1CCCN(c2cc(-c3cncnc3)n3ncnc(N)c23)C1 [Example 583, (R)-N-(1-(4-amino-7-(pyrimidin-5-yl)pyrrolo[2,1-f][1,2,4]triazin-5-yl)piperidin-3-yl)-5-chloro-3-(2-(dimethylamino)ethoxy)thiophene-2-carboxamide]
11 | 4 nM | NCCOc1cc(C(F)F)sc1C(=O)N[C@@H]1CCCN(c2cc(-c3ccnc(C(F)F)c3)n3ncnc(N)c23)C1 [Example 326, (R)-N-(1-(4-amino-7-(2-(difluoromethyl)pyridin-4-yl)pyrrolo[2,1-f][1,2,4]triazin-5-yl)piperidin-3-yl)-3-(2-aminoethoxy)-5-(difluoromethyl)thiophene-2-carboxamide]
